In patent publication US10696615B2, “Prenylated hydroxystilbenes” (The University of Sydney, priority 2011, dated 2020):

Legend:
[1] = system: ACHN; experiment: NCI in vitro cancer screen, Renal Cancer; type: cell-based, human; settings: for GI50 / CC50: Homo sapiens; for CC50: read-out: LC50 (the source's name)
[2] = system: SF-539; experiment: NCI in vitro cancer screen, CNS Cancer; type: cell-based; settings: SF-539; for GI50 / CC50: Homo sapiens; for CC50: read-out: LC50 (the source's name)
[3] = system: NCI-H226; experiment: NCI in vitro cancer screen, Non-Small Cell Lung Cancer; type: cell-based, human; settings: NCI-H226; for GI50 / LC50 (50% lethal concentration): Homo sapiens
[4] = system: SN12C; experiment: NCI in vitro cancer screen, Renal Cancer; type: cell-based, human; settings: for GI50 / CC50: Homo sapiens; for CC50: read-out: LC50 (the source's name)
[5] = system: HCT-15; experiment: NCI in vitro cancer screen, Colon Cancer; type: cell-based, human; settings: HCT-15; for GI50 / CC50: Homo sapiens; for CC50: read-out: LC50 (the source's name)
[6] = system: EKVX; experiment: NCI in vitro cancer screen, Non-Small Cell Lung Cancer; type: cell-based, human; settings: for GI50 / CC50: Homo sapiens; for CC50: read-out: LC50 (the source's name)
[7] = system: IGROV1; experiment: NCI in vitro cancer screen, Ovarian Cancer; type: cell-based, human; settings: IGROV1; for GI50 / CC50: Homo sapiens, IGROV-1; for CC50: read-out: LC50 (the source's name)
[8] = system: PC-3; experiment: NCI in vitro cancer screen, Prostate Cancer; type: cell-based, human; settings: PC-3; for GI50 / CC50: Homo sapiens; for CC50: read-out: LC50 (the source's name)
[9] = system: SK-MEL-2; experiment: NCI in vitro cancer screen, Melanoma; type: cell-based, human; settings: SK-MEL-2; for GI50 / LC50: Homo sapiens
[10] = system: HCC-2998; experiment: NCI in vitro cancer screen, Colon Cancer; type: cell-based, human; settings: HCC-2998; for GI50 / CC50: Homo sapiens; for CC50: read-out: LC50 (the source's name)
[11] = system: MDA-MB-435; experiment: NCI in vitro cancer screen, Melanoma; type: cell-based, human; settings: MDA-MB-435; for GI50 / CC50: Homo sapiens; for CC50: read-out: LC50 (the source's name)
[12] = system: CAKI-1; experiment: NCI in vitro cancer screen, Renal Cancer; type: cell-based, human; settings: CAKI-1; for GI50 / CC50: Homo sapiens; for CC50: read-out: LC50 (the source's name)
[13] = system: SNB-75; experiment: NCI in vitro cancer screen, CNS Cancer; type: cell-based, human; settings: SNB-75; for GI50 / CC50: Homo sapiens; for CC50: read-out: LC50 (the source's name)
[14] = system: HS 578T; experiment: NCI in vitro cancer screen, Breast Cancer; type: cell-based, human; settings: for GI50 / CC50: Homo sapiens; for CC50: read-out: LC50 (the source's name)
[15] = system: OVCAR-3; experiment: NCI in vitro cancer screen, Ovarian Cancer; type: cell-based, human; settings: OVCAR-3; for GI50 / CC50: Homo sapiens; for CC50: read-out: LC50 (the source's name)
[16] = system: MCF7; experiment: NCI in vitro cancer screen, Breast Cancer; type: cell-based, human; settings: MCF7; for GI50 / CC50: Homo sapiens; for CC50: read-out: LC50 (the source's name)
[17] = system: KM12; experiment: NCI in vitro cancer screen, Colon Cancer; type: cell-based, human; settings: KM12; for GI50 / CC50: Homo sapiens; for CC50: read-out: LC50 (the source's name)
[18] = system: TK-10; experiment: NCI in vitro cancer screen, Renal Cancer; type: cell-based, human; settings: TK-10; for GI50 / LC50: Homo sapiens
[19] = system: SW-620; experiment: NCI in vitro cancer screen, Colon Cancer; type: cell-based, human; settings: SW-620; for GI50 / CC50: Homo sapiens; for CC50: read-out: LC50 (the source's name)
[20] = system: NCI-H522; experiment: NCI in vitro cancer screen, Non-Small Cell Lung Cancer; type: cell-based, human; settings: NCI-H522; for GI50 / CC50: Homo sapiens; for CC50: read-out: LC50 (the source's name)
[21] = system: MALME-3M; experiment: NCI in vitro cancer screen, Melanoma; type: cell-based, human; settings: for GI50 / CC50: Homo sapiens, Malme-3M; for CC50: read-out: LC50 (the source's name); for TGI: MALME-3M
[22] = system: SF-268; experiment: NCI in vitro cancer screen, CNS Cancer; type: cell-based, human; settings: SF-268; for GI50 / CC50: Homo sapiens; for CC50: read-out: LC50 (the source's name)
[23] = system: NCI-H322M; experiment: NCI in vitro cancer screen, Non-Small Cell Lung Cancer; type: cell-based, human; settings: for GI50 / LC50 (50% lethal concentration): Homo sapiens
[24] = system: A498; experiment: NCI in vitro cancer screen, Renal Cancer; type: cell-based, human; settings: A498; for GI50 / CC50: Homo sapiens; for CC50: read-out: LC50 (the source's name)
[25] = system: U251; experiment: NCI in vitro cancer screen, CNS Cancer; type: cell-based, human; settings: U251; for GI50 / CC50: Homo sapiens, U-251; for CC50: read-out: LC50 (the source's name)
[26] = system: CCRF-CEM; experiment: NCI in vitro cancer screen, Leukemia; type: cell-based, human; settings: for GI50 / CC50: Homo sapiens; for CC50: read-out: LC50 (the source's name)
[27] = system: MDA-MB-231 (MDA-MB-231/ATCC); experiment: NCI in vitro cancer screen, Breast Cancer; type: cell-based, human; settings: MDA-MB-231; for GI50 / CC50: Homo sapiens; for CC50: read-out: LC50 (the source's name)
[28] = system: A549/ATCC; experiment: NCI in vitro cancer screen, Non-Small Cell Lung Cancer; type: cell-based, human; settings: for GI50 / CC50: Homo sapiens; for CC50: read-out: LC50 (the source's name)

## COc1cc(/C=C/c2cc(O)c(CC=C(C)C)c(O)c2)ccc1O [USYDS13, (E)-4-(3-methyl-2-buten-1-yl)-3,4′,5-trihydroxy-3′-methoxystilbene]
[1]
  TGI: >100 µM
  GI50: 5.11 µM
  CC50: > 100 µM
[2]
  GI50: 7.32 µM
  CC50: > 100 µM
  TGI: 29.9 µM
[3]
  GI50: 10.9 µM
  LC50 (50% lethal concentration): > 100 µM
  TGI: 50.1 µM
[4]
  TGI: >100 µM
  GI50: 7.16 µM
  CC50: > 100 µM
[5]
  TGI: 20.5 µM
  GI50: 4.25 µM
  CC50: 84.5 µM
[6]
  TGI: 54.6 µM
  GI50: 12.8 µM
  CC50: > 100 µM
[7]
  GI50: 6.7 µM
  CC50: > 100 µM
  TGI: 86.2 µM
[8]
  GI50: 6.36 µM
  CC50: > 100 µM
  TGI: >100 µM
[9]
  GI50: 3.09 µM
  LC50: 40.2 µM
  TGI: 9.37 µM
[10]
  TGI: 30.6 µM
  GI50: 11 µM
  CC50: 85.3 µM
[11]
  GI50: 3.08 µM
  CC50: > 100 µM
  TGI: 15.9 µM
[12]
  TGI: >100 µM
  GI50: 5.9 µM
  CC50: > 100 µM
[13]
  GI50: 5.47 µM
  CC50: > 100 µM
  TGI: 36.6 µM
[14]
  TGI: 15.0 µM
  GI50: 2.4 µM
  CC50: > 100 µM
[15]
  GI50: 7.98 µM
  CC50: > 100 µM
  TGI: 39.8 µM
[16]
  GI50: 0.68 µM
  CC50: 82.7 µM
  TGI: 19.9 µM
[17]
  GI50: 3.15 µM
  CC50: 49 µM
  TGI: 16.1 µM
[18]
  GI50: 6.98 µM
  LC50: > 100 µM
  TGI: 31.4 µM
[19]
  GI50: 3.98 µM
  CC50: 42.8 µM
  TGI: 15.9 µM
[20]
  GI50: 2.13 µM
  CC50: 25.6 µM
  TGI: 59.8 µM
[21]
  GI50: 5.53 µM
  CC50: > 100 µM
  TGI: 32.1 µM
[22]
  GI50: 6.17 µM
  CC50: > 100 µM
  TGI: 32.9 µM
[23]
  TGI: 28.5 µM
  GI50: 5.9 µM
  LC50 (50% lethal concentration): > 100 µM
[24]
  TGI: 21.0 µM
  GI50: 3.88 µM
  CC50: 63.5 µM
[25]
  GI50: 5.47 µM
  CC50: 57.6 µM
  TGI: 20.7 µM
[26]
  TGI: >100 µM
  GI50: 6.56 µM
  CC50: > 100 µM
[27]
  GI50: 1.63 µM
  CC50: > 100 µM
  TGI: 7.82 µM
[28]
  TGI: 20.4 µM
  GI50: 4.01 µM
  CC50: > 100 µM

## COc1cc(O)cc(/C=C/c2ccc(O)c(O)c2)c1CC=C(C)C [USYDS9, (E)-2-(3-methyl-2-buten-1-yl)-3′,4′,5-trihydroxy-3-methoxystilbene]
[1]
  TGI: >100 µM
  GI50: 0.66 µM
  CC50: > 100 µM
[2]
  GI50: 0.28 µM
  CC50: > 100 µM
  TGI: 1.02 µM
[3]
  GI50: 18.6 µM
  LC50 (50% lethal concentration): > 100 µM
  TGI: 57.9 µM
[4]
  TGI: 83.5 µM
  GI50: 1.76 µM
  CC50: > 100 µM
[5]
  TGI: >100 µM
  GI50: 0.43 µM
  CC50: > 100 µM
[6]
  TGI: >100 µM
  GI50: 26.4 µM
  CC50: > 100 µM
[7]
  GI50: 4.57 µM
  CC50: > 100 µM
  TGI: >100 µM
[8]
  GI50: 2.92 µM
  CC50: > 100 µM
  TGI: >100 µM
[9]
  GI50: 2.17 µM
  LC50: > 100 µM
  TGI: 12.1 µM
[10]
  TGI: 21.2 µM
  GI50: 4.18 µM
  CC50: > 100 µM
[11]
  GI50: 0.13 µM
  CC50: > 100 µM
  TGI: 0.42 µM
[12]
  TGI: >100 µM
  GI50: 19.1 µM
  CC50: > 100 µM
[13]
  GI50: 0.24 µM
  CC50: > 100 µM
[14]
  TGI: 0.73 µM
  GI50: 0.2 µM
  CC50: > 100 µM
[15]
  GI50: 0.9 µM
  CC50: 24.8 µM
  TGI: 3.84 µM
[16]
  GI50: 2.81 µM
  CC50: > 100 µM
  TGI: >100 µM
[17]
  GI50: 0.52 µM
  CC50: 63.9 µM
  TGI: 12.2 µM
[18]
  GI50: 5.34 µM
  LC50: > 100 µM
  TGI: 41.2 µM
[19]
  GI50: 0.31 µM
  CC50: 75 µM
  TGI: 15.3 µM
[20]
  GI50: 0.15 µM
  CC50: 44.8 µM
  TGI: 0.45 µM
[21]
  GI50: 0.62 µM
  CC50: > 100 µM
  TGI: >100 µM
[22]
  GI50: 0.63 µM
  CC50: > 100 µM
  TGI: 37.6 µM
[23]
  TGI: >100 µM
  GI50: 0.76 µM
  LC50 (50% lethal concentration): > 100 µM
[24]
  TGI: 53.5 µM
  GI50: 10.3 µM
  CC50: > 100 µM
[25]
  GI50: 0.59 µM
  CC50: > 100 µM
  TGI: 19.6 µM
[26]
  TGI: >100 µM
  GI50: 2.14 µM
  CC50: > 100 µM
[27]
  GI50: 0.38 µM
  CC50: > 100 µM
  TGI: 2.61 µM
[28]
  TGI: 41.5 µM
  GI50: 2.62 µM
  CC50: > 100 µM
